Results from patent US4169197A, “6-Deoxyneamines aminoglycoside compounds” (The Upjohn Company, priority 1978, dated 1979).
≈ marks a conversion by molar mass, not a printed value. Read-outs that look alike come from different tables or passages of the source.

Tests used:
Type in all cases: cell-based
[1] = tested on: S. pyogenes UC 152; test: standard microplate test in BHI Agar; settings: Streptococcus pyogenes
Protocol: (§1) The compounds VII, XI, XVβ, XVα and XVI were tested in a standard microplate test in BHI (Brain Heart Infusion) Agar at a concentration of 1 mg./ml. and dilutions thereof at 37° incubation temperature. The end points are read out 20 hours. BHI Agar is supplied by Difco Laboratories, Detroit, Mich.

[2] = tested on: S. faecalis UC 694; test: standard microplate test in BHI Agar; settings: Enterococcus faecalis
Protocol: as §1

[3] = tested on: E. coli UC 45; test: standard microplate test in BHI Agar; settings: Escherichia coli, UC45, 37°, 20 hours, Table III, read-out: Minimum Inhibitory Concentration
Protocol: as §1

[4] = tested on: P. morganii UC 3186; test: standard microplate test in BHI Agar; settings: Morganella morganii
Protocol: as §1

[5] = tested on: K. pneumoniae UC 58; test: standard microplate test in BHI Agar; settings: Klebsiella pneumoniae
Protocol: as §1

[6] = tested on: P. mirabilis UC 6671; test: standard microplate test in BHI Agar; settings: Proteus mirabilis, UC6671, 20 h
Protocol: as §1

[7] = tested on: Ps. aeruginosa UC 95; test: standard microplate test in BHI Agar; settings: Pseudomonas aeruginosa
Protocol: as §1

[8] = tested on: P. vulgaris UC 93; test: standard microplate test in BHI Agar; settings: Proteus vulgaris, UC93, 20 h
Protocol: as §1

[9] = tested on: S. marcescens UC 131; test: standard microplate test in BHI Agar; settings: Serratia marcescens, UC131, 20 h
Protocol: as §1

[10] = tested on: S. pneumoniae I UC 41; test: standard microplate test in BHI Agar; settings: Streptococcus pneumoniae, UC41, 20 h
Protocol: as §1

[11] = tested on: S. schottmuelleri UC 126; test: standard microplate test in BHI Agar; settings: 37°, 20 hours
Protocol: as §1

[12] = tested on: S. flexneri UC 143; test: standard microplate test in BHI Agar; settings: Shigella flexneri, UC143, 37°, 20 hours
Protocol: as §1

[13] = tested on: S. typhi UC 215; test: standard microplate test in BHI Agar; settings: Salmonella enterica, 20 h
Protocol: as §1

[14] = tested on: P. rettgeri UC 339; test: standard microplate test in BHI Agar; settings: Providencia rettgeri
Protocol: as §1

[15] = tested on: S. aureus UC 76; test: standard microplate test in BHI Agar; settings: Staphylococcus aureus
Protocol: as §1

[16] = tested on: E. coli UC 311; test: standard microplate test in BHI Agar; settings: Escherichia coli, UC311, 20 h, read-out: Minimal Inhibitory Concentration
Protocol: as §1

[17] = tested on: S. aureus UC 80; test: standard disc plate assay, zones of inhibition; settings: Staphylococcus aureus, UC80, 12.5 mm paper discs, Table I, read-out: Zones of Inhibition
Text: (§2) The compounds of formulas (V, VII, IX, XI, XIV, XVI, and XIX) are active as antibacterials and can be used in various environments to erradicate or control susceptible microorganisms. Tables I and II set forth the in vitro antibacterial test results for representative compounds of the present invention. The results were obtained with a standard disc plate assay using 12.5 mm paper discs.

[18] = tested on: B. cereus UC 3145; test: standard disc plate assay, zones of inhibition; settings: Bacillus cereus, UC3145, 12.5 mm paper discs, Table I, read-out: Zones of Inhibition
Text: as §2

[19] = tested on: K. pneumoniae UC 57; test: standard disc plate assay, zones of inhibition; settings: Klebsiella pneumoniae, UC57, 12.5 mm paper discs, Table I, read-out: Zones of Inhibition
Text: as §2

[20] = tested on: S. gallinarum UC 265; test: standard disc plate assay, zones of inhibition; settings: Salmonella enterica, 12.5 mm paper discs, Table I, read-out: Zones of Inhibition
Text: as §2

[21] = tested on: Ps. aeruginosa UC 95; test: standard disc plate assay, zones of inhibition; settings: Pseudomonas aeruginosa, UC95; 1 mg/ml; 12.5 mm paper discs; Table I; read-out: Zones of Inhibition
Text: as §2

[22] = tested on: P. vulgaris UC 93; test: standard disc plate assay, zones of inhibition; settings: Proteus vulgaris, UC93, 12.5 mm paper discs, Table I, read-out: Zones of Inhibition
Text: as §2

[23] = tested on: E. coli UC 51; test: standard disc plate assay, zones of inhibition; settings: Escherichia coli, UC51, 12.5 mm paper discs, Table I, read-out: Zones of Inhibition
Text: as §2

[24] = tested on: S. lutea UC 130; test: standard disc plate assay, zones of inhibition; settings: Micrococcus luteus, UC130; 1 mg/ml; 12.5 mm paper discs; Table I; read-out: Zones of Inhibition
Text: as §2

[25] = tested on: S. schottmuelleri UC 126; test: standard disc plate assay, zones of inhibition; settings: 12.5 mm paper discs, Table I
Text: as §2

[26] = tested on: B. subtilis UC 564; test: standard disc plate assay, zones of inhibition; settings: Bacillus subtilis, UC564, 12.5 mm paper discs, Table I, read-out: Zones of Inhibition
Text: as §2

[27] = read-out: Minimum Inhibitory Concentration
[28] = Table III, read-out: Minimum Inhibitory Concentration
[29] = read-out: Minimal Inhibitory Concentration
[30] = Table IV, read-out: Minimal Inhibitory Concentration

NC[C@H]1O[C@H](O[C@H]2[C@H](O)C[C@H](N)C[C@@H]2N)[C@H](N)[C@@H](O)[C@@H]1O [6-deoxyneamine (XI), 6-deoxyneamine] showed an MIC ([1]; UC152, 20 h, read-out: Minimum Inhibitory Concentration) of 15.6 µg/mL (≈ 50.9 µM), an MIC ([2]; UC694, 20 h, read-out: Minimum Inhibitory Concentration) of over 500 µg/mL and an MIC [3] of 31.2 µg/mL (≈ 102 µM). The MIC ([4]; UC3186, 20 h, read-out: Minimum Inhibitory Concentration) was 62.5 µg/mL (≈ 204 µM), the MIC ([5]; UC58, 20 h, read-out: Minimum Inhibitory Concentration) was 7.8 µg/mL (≈ 25.5 µM) and the MIC [6, 27] was 62.5 µg/mL (≈ 204 µM). The MIC ([7]; UC95, 20 h, read-out: Minimum Inhibitory Concentration) was over 500 µg/mL, the MIC [8, 27] was 31.2 µg/mL (≈ 102 µM) and the MIC [9, 27] was 250 µg/mL (≈ 816 µM). For the same molecule, the MIC [10, 27] was 62.5 µg/mL (≈ 204 µM), the MIC [11, 28] was 31.2 µg/mL (≈ 102 µM) and the MIC [12, 28] was 62.5 µg/mL (≈ 204 µM). The MIC [13, 27] was 31.2 µg/mL (≈ 102 µM), the MIC ([14]; UC339, 20 h, read-out: Minimum Inhibitory Concentration) was 250 µg/mL (≈ 816 µM) and the MIC ([15]; UC76, BHI Agar, 37°, 20 hours, Table III, read-out: Minimum Inhibitory Concentration) was 3.9 µg/mL (≈ 12.7 µM).

NC[C@H]1O[C@H](O[C@@H]2[C@@H](N)C[C@@H](N)C[C@H]2O[C@@H]2O[C@H](CO)[C@@H](O)[C@H]2O)[C@H](N)[C@@H](O)[C@@H]1O [Compound XVβ, O-2,6-diamino-2,6-dideoxy-α-D-glucopyranosyl (1→4)-O-[β-D-ribofuranosyl(1→5)]-2,6-dideoxy-D-streptamine] was tested, and the MIC ([1]; UC152, BHI Agar, 37°, 20 hours, Table IV, read-out: Minimal Inhibitory Concentration) was 3.9 µg/mL (≈ 8.89 µM), the MIC [16] was 31.2 µg/mL (≈ 71.2 µM) and the MIC ([2]; UC694, BHI Agar, 37°, 20 hours, Table IV, read-out: Minimal Inhibitory Concentration) was 500 µg/mL (≈ 1140 µM). For the same molecule, the MIC ([4]; UC3186, BHI Agar, 37°, 20 hours, Table IV, read-out: Minimal Inhibitory Concentration) was 7.8 µg/mL (≈ 17.8 µM), the MIC ([5]; UC58, BHI Agar, 37°, 20 hours, Table IV, read-out: Minimal Inhibitory Concentration) was 2 µg/mL (≈ 4.56 µM) and the MIC [6, 29] was 125 µg/mL (≈ 285 µM). For the same molecule, the MIC ([7]; UC95, BHI Agar, 37°, 20 hours, Table IV, read-out: Minimal Inhibitory Concentration) was over 500 µg/mL, the MIC [8, 29] was 31.2 µg/mL (≈ 71.2 µM) and the MIC [9, 29] was 62.5 µg/mL (≈ 143 µM). The MIC [10, 29] was 15.6 µg/mL (≈ 35.6 µM), the MIC [11, 30] was 7.8 µg/mL (≈ 17.8 µM) and the MIC [12, 30] was 31.2 µg/mL (≈ 71.2 µM). The MIC [13, 29] was 15.6 µg/mL (≈ 35.6 µM), the MIC ([14]; UC339, BHI Agar, 37°, 20 hours, Table IV, read-out: Minimal Inhibitory Concentration) was over 500 µg/mL and the MIC ([15]; UC76, 20 h, read-out: Minimal Inhibitory Concentration) was 31.2 µg/mL (≈ 71.2 µM). It also gave a zone of inhibition at 100 µg/mL ([17]; 0.1 mg/ml) of 19 mm, a zone of inhibition at 1000 µg/mL ([17]; 1 mg/ml) of 27 mm and a zone of inhibition at 100 µg/mL ([18]; 0.1 mg/ml) of 17 mm. For the same molecule, the zone of inhibition at 1000 µg/mL ([18]; 1 mg/ml) was 26 mm, the zone of inhibition at 100 µg/mL ([19]; 0.1 mg/ml) was 28 mm and the zone of inhibition at 1000 µg/mL ([19]; 1 mg/ml) was 36 mm. For the same molecule, the zone of inhibition at 100 µg/mL ([20]; 0.1 mg/ml) was 21 mm, the zone of inhibition at 1000 µg/mL ([20]; 1 mg/ml) was 29 mm and the zone of inhibition at 1000 µg/mL [21] was 15 mm. The zone of inhibition at 100 µg/mL ([22]; 0.1 mg/ml) was 18 mm, the zone of inhibition at 1000 µg/mL ([22]; 1 mg/ml) was 27 mm and the zone of inhibition at 100 µg/mL ([23]; 0.1 mg/ml) was 20 mm. For the same molecule, the zone of inhibition at 1000 µg/mL ([23]; 1 mg/ml) was 27 mm, the zone of inhibition at 1000 µg/mL [24] was 19 mm and the zone of inhibition at 100 µg/mL ([25]; 0.1 mg/ml) was 16 mm. For the same molecule, the zone of inhibition at 1000 µg/mL ([25]; 1 mg/ml) was 24 mm, the zone of inhibition at 100 µg/mL ([26]; 0.1 mg/ml) was 31 mm and the zone of inhibition at 1000 µg/mL ([26]; 1 mg/ml) was 39 mm.
